From patent US7919634B2, “Fused thiophenes, articles, and methods thereof” (Corning Incorporated, priority 2009, dated 2011)
Like-named read-outs stand apart in the source and are kept apart here.

Experiment: Solubility of selected FT4 and FT5 compounds in organic solvents (10 mg compound, stepwise 5 mL solvent additions, ultrasonic bath)
Type: physicochemical
Conditions: thermodynamic from solid
Procedure: Solubility of Selected FT4 And FT5 Compounds Table 1 provides a solubility comparison of some α-, α′-unsubstituted, β-, β′-alkyl substituted FT4 (and FT5), with some α-, α′-substituted, β-, β′-alkyl substituted FT4 (and FT5) compounds. General Procedure: 10 mg of a FT4 or FT5 compound was mixed with 5.0 mL of a specified solvent and then sealed in a screw-top glass vial. The resulting mixture was kept in an ultrasonic bath for 30 minutes at ambient temperature and then kept quiescent for 30 minutes to check whether a clear solution formed. If the mixture was still not clear after these 60 minutes, an additional 5.0 mL of the same solvent was added to the vial and the 60 minute mixing and standing procedure was repeated up to a total of 20 mL of solvent.

[1] = CH2Cl2, organic solvent or mixture, 10 mg compound in 5 mL CH2Cl2, ambient temperature, read-out: Solubility CH2Cl2
[2] = CH2Cl2, organic solvent or mixture, 10 mg compound in 10 mL CH2Cl2, ambient temperature, read-out: Solubility CH2Cl2
[3] = hexane, organic solvent or mixture, 10 mg compound in 5 mL hexane, ambient temperature, read-out: Solubility hexane
[4] = hexane, organic solvent or mixture, 10 mg compound in 10 mL hexane, ambient temperature, read-out: Solubility hexane
[5] = hexane, organic solvent or mixture, 10 mg compound in 15 mL hexane, ambient temperature, read-out: Solubility hexane
[6] = hexane, organic solvent or mixture, 10 mg compound in 20 mL hexane, ambient temperature, read-out: Solubility hexane
[7] = toluene, organic solvent or mixture, 10 mg compound in 5 mL toluene, ambient temperature, read-out: Solubility toluene
[8] = toluene, organic solvent or mixture, 10 mg compound in 10 mL toluene, ambient temperature, read-out: Solubility toluene
[9] = CH2Cl2, organic solvent or mixture, 10 mg compound in 15 mL CH2Cl2, ambient temperature, read-out: Solubility CH2Cl2
[10] = CH2Cl2, organic solvent or mixture, 10 mg compound in 20 mL CH2Cl2, ambient temperature, read-out: Solubility CH2Cl2
[11] = toluene, organic solvent or mixture, 10 mg compound in 15 mL toluene, ambient temperature, read-out: Solubility toluene
[12] = toluene, organic solvent or mixture, 10 mg compound in 20 mL toluene, ambient temperature, read-out: Solubility toluene

solubility at 60 min [1]	solubility at 60 min [2]	solubility at 60 min [3]	solubility at 60 min [4]	solubility at 60 min [5]	solubility at 60 min [6]	solubility at 60 min [7]	solubility at 60 min [8]	solubility at 60 min [9]	solubility at 60 min [10]	solubility at 60 min [11]	solubility at 60 min [12]	SMILES
< 2 mg/mL	> 0.5 mg/mL	< 2 mg/mL	< 2 mg/mL	< 2 mg/mL	< 2 mg/mL	< 2 mg/mL	> 0.5 mg/mL	–	–	–	–	CCCCCCCCCCCCCc1csc2c1sc1c3scc(CCCCCCCCCCCCC)c3sc21
> 0.5 mg/mL	–	< 2 mg/mL	< 2 mg/mL	< 2 mg/mL	< 2 mg/mL	> 0.5 mg/mL	–	–	–	–	–	CCCCCCCCCCCCCc1c(-c2cccs2)sc2c1sc1c3sc(-c4cccs4)c(CCCCCCCCCCCCC)c3sc21
< 2 mg/mL	> 0.5 mg/mL	< 2 mg/mL	< 2 mg/mL	< 2 mg/mL	> 0.5 mg/mL	> 0.5 mg/mL	–	–	–	–	–	CCCCCCCCCCCCCc1c(-c2ccccc2)sc2c1sc1c3sc(-c4ccccc4)c(CCCCCCCCCCCCC)c3sc21
< 2 mg/mL	< 2 mg/mL	< 2 mg/mL	< 2 mg/mL	< 2 mg/mL	< 2 mg/mL	< 2 mg/mL	< 2 mg/mL	< 2 mg/mL	< 2 mg/mL	< 2 mg/mL	< 2 mg/mL	CCCCCCCCCCCCCCCCCc1csc2c1sc1c3scc(CCCCCCCCCCCCCCCCC)c3sc21
< 2 mg/mL	< 2 mg/mL	< 2 mg/mL	< 2 mg/mL	< 2 mg/mL	< 2 mg/mL	< 2 mg/mL	< 2 mg/mL	< 2 mg/mL	> 0.5 mg/mL	> 0.5 mg/mL	> 0.5 mg/mL	CCCCCCCCCCCCCCCCCc1c(-c2cccs2)sc2c1sc1c3sc(-c4cccs4)c(CCCCCCCCCCCCCCCCC)c3sc21
< 2 mg/mL	< 2 mg/mL	< 2 mg/mL	< 2 mg/mL	< 2 mg/mL	< 2 mg/mL	> 0.5 mg/mL	> 0.5 mg/mL	> 0.5 mg/mL	–	–	–	CCCCCCCCCCCCCCCCCc1c(-c2ccccc2)sc2c1sc1c3sc(-c4ccccc4)c(CCCCCCCCCCCCCCCCC)c3sc21
< 2 mg/mL	> 0.5 mg/mL	< 2 mg/mL	> 0.5 mg/mL	–	–	> 0.5 mg/mL	–	–	–	–	–	CCCCCCCCCCCCCc1csc2c1sc1c2sc2c3scc(CCCCCCCCCCCCC)c3sc21
> 0.5 mg/mL	–	< 2 mg/mL	< 2 mg/mL	< 2 mg/mL	< 2 mg/mL	> 0.5 mg/mL	–	–	–	–	–	CCCCCCCCCCCCCc1c(-c2cccs2)sc2c1sc1c2sc2c3sc(-c4cccs4)c(CCCCCCCCCCCCC)c3sc21
> 0.5 mg/mL	–	> 0.5 mg/mL	–	–	–	> 0.5 mg/mL	–	–	–	–	–	CCCCCCCCCCCCCc1c(-c2ccccc2)sc2c1sc1c2sc2c3sc(-c4ccccc4)c(CCCCCCCCCCCCC)c3sc21
